Substitutions are numbered along the chain they refer to.

For orientation: inhibition means the share of the control response that was lost under treatment. What is called IC50 is the midpoint of a concentration-inhibition curve.

One assay has as its target T1, TRPV3 N671Q mutant (Homo sapiens, UniProt Q8NET8, N671Q).
T1 construct: YFP or GFP; expressed in transfected cells; host or cells: HEK293T
T1 sequence (Q8NET8 1-790 N671Q): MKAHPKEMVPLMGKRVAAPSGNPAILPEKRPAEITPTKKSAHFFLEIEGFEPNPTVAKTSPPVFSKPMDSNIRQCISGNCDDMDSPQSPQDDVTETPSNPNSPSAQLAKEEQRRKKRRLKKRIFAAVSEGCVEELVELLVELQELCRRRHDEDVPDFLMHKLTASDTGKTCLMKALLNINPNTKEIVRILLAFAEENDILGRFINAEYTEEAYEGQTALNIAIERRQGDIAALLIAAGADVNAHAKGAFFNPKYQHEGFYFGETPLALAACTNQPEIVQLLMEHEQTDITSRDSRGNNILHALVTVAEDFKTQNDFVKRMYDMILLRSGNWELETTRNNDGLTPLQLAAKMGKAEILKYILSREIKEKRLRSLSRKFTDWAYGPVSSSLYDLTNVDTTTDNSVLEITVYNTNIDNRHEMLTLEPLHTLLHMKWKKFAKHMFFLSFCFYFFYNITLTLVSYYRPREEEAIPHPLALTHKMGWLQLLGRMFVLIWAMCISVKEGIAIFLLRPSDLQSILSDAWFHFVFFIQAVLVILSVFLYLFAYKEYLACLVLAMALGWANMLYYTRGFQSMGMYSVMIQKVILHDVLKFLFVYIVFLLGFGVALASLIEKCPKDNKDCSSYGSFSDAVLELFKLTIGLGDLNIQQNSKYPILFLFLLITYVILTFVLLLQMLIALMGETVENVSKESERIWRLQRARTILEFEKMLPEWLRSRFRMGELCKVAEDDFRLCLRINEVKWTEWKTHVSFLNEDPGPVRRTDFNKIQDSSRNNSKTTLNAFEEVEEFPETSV
In words: Whole-cell recording of TRPV3 N671Q mutant. The format is cell-based. An excerpt: (§1) As we mentioned above, HCQ may act as a pore blocker of TRPV3. To probe the binding configuration of HCQ to TRPV3, we carried out molecular docking using Rosetta suite (https://rosettacommons.org) ([21]) and validated the docking models with point mutations in TRPV3 (Fig. 4A). […] Furthermore, when we introduced L670A to L591A mutant, we also observed a left shift on the concentration–response curve on this double mutant as compared to L591A mutant (Fig. 4H).
(§2) Figure 4 Residues of the pore domain are critical for HCQ inhibition on TRPV3.A, left panel, docking model of HCQ to the pore domain of TRPV3 structure (6uw4). Right panels, top view and side view of the HCQ-binding pocket. B-J, representative whole-cell recording of TRPV3 and mutants in response to 1 mM 2-APB, the mixture of 1 mM 2-APB and concentration gradients of HCQ with the holding potential of ± 80 mV. K, concentration–response curves of HCQ in WT TRPV3 and mutants (n = 3–5 cells). L, quantification of the inhibitory ratio of HCQ (100 μM) on WT, L591A, and N671Q. […]
(§3) All data from whole-cell recordings were analyzed in Igor Pro (WaveMetrics). IC50 values were determined by fitting the Hill equation to concentration-response relationships. […]

Assay [1] concerns the target T2, TRPV3 F633 alanine mutation (Homo sapiens, UniProt Q8NET8, F633A).
T2 construct: YFP or GFP; expressed in transfected cells; host or cells: HEK293T
T2 sequence (Q8NET8 1-790 F633A): T1 sequence (Q8NET8 1-790 N671Q) with F633A, Q671N
The assay can be described thus: Whole-cell recording of TRPV3 F633 alanine mutant. Format: cell-based. Conditions: 1 mM 2-APB, ± 80 mV.
Text: as §1, §2, §3

At TRPV3 N671Q mutant (100 μM HCQ), `CCN(CCO)CCCC(C)Nc1ccnc2cc(Cl)ccc12` (stereo not drawn) [HCQ, hydroxychloroquine] came in with an inhibition at 100 µM of 27.8%. In addition, the IC50 at TRPV3 N671Q mutant (1 mM 2-APB, ± 80 mV) is 133 ± 8.6 µM; in assay [1], 0.14 ± 0.01 µM.

The values above are taken from paper PMC11460631, “Inhibition of transient receptor potential vanilloid 3 channels by antimalarial hydroxychloroquine alleviates TRPV3-dependent dermatitis” (The Journal of Biological Chemistry, 2024).
